This passage reports Kd results from article PMC5458252, “Niclosamide is a potential therapeutic for familial adenomatosis polyposis by disrupting Axin-GSK3 interaction” (Oncotarget, 2017).

As usually defined, the pKd is −log10 of the Kd, conventionally taken in molar units.

The target in the experiment is T1, GSK3β (Homo sapiens, UniProt P49841).
T1 construct: gene GSK3B; His-tagged recombinant GSK3β from sf9 insect cells
The experiment in a line: SPR (ProteOn XPR36, immobilized recombinant GSK3β); supported by competition with FITC-Axin peptide (AFF assay). It counts as binding. From the text:
SPR (ProteOn XPR36, immobilized recombinant GSK3β); supported by competition with FITC-Axin peptide (AFF assay) on GSK3β | wild type Axin peptide or niclosamide directly binds to GSK3, the equilibrium dissociation constant yielding a KD

pKd: −log10 of the molar value.

T1 sequence (P49841 whole entry): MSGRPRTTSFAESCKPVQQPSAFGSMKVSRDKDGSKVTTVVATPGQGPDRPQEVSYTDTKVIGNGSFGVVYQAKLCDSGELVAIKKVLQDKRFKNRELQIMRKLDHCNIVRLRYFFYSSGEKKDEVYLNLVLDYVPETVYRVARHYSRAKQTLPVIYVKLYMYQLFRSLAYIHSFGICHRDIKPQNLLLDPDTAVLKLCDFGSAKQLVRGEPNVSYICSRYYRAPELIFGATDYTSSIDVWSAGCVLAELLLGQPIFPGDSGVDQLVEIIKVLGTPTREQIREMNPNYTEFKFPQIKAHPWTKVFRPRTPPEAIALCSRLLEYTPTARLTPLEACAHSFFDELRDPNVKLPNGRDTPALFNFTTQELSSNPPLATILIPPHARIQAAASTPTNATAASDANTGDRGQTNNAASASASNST

With `O=C(Nc1ccc([N+](=O)[O-])cc1Cl)c1cc(Cl)ccc1O` [Niclosamide], the pKd is 4.46.
